According to the supplement of paper PMC10307832:

How the values were obtained:
Assay in all cases: relative viability (nuclei count vs DMSO), 5 days (fraction); higher = more cells survive
[1] = compound: CCCS(=O)(=O)Nc1ccc(F)c(C(=O)c2c[nH]c3ncc(-c4ccc(Cl)cc4)cc23)c1F [Vemurafenib]
Outline: (§1)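 Hoechst staining, done together with fixation and permeabilisation, marked nuclei for 4× imaging and MetaXpress counting. This followed 5 days without medium change after lung cancer cell lines, kept overnight at 37 °C in 1536-well plates, were pinned with five library-drug doses (not always all listed) spaced by √10 on vehicle-anchored plates. Viability is the ratio of treated-well to vehicle-well nuclei, expressed as a median across plates. Plates passed only at control CV below 25% with at least one doubling.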

[2] = compound: COc1cccc2cc(-c3nc([C@H]4CC[C@H](C(=O)O)CC4)n4ncnc(N)c34)[nH]c12 [OSI-027]
Outline: as §1

[3] = compound: Cc1nc(NC(=O)N2CCC[C@H]2C(N)=O)sc1-c1ccnc(C(C)(C)C(F)(F)F)c1 [Alpelisib]
Outline: as §1

Cell Line | relative viability ([1]; 0.03162 µM) | relative viability ([1]; 0.1 µM) | relative viability ([1]; 0.3162 µM) | relative viability ([1]; 1 µM) | relative viability ([2]; 0.01 µM) | relative viability ([2]; 0.03162 µM) | relative viability ([2]; 0.1 µM) | relative viability ([2]; 0.3162 µM) | relative viability ([2]; 0.5 µM, anchor plate) | relative viability ([2]; 1 µM) | relative viability ([3]; 0.04 µM) | relative viability ([3]; 0.1265 µM) | relative viability ([3]; 0.4 µM) | relative viability ([3]; 1.265 µM) | relative viability ([3]; 2 µM, anchor plate) | relative viability ([3]; 4 µM)
LCLC-103H | 0.958 | 0.952 | 0.91 | 0.883 | 1.03 | 1.02 | 0.903 | 0.871 | 0.473 | 0.749 | 0.972 | 0.956 | 0.959 | 0.779 | 0.969 | 0.749
Calu-6 | 0.932 | 0.956 | 0.849 | 0.974 | 1.12 | 0.954 | 1.03 | 0.907 | – | 0.731 | 0.981 | 0.976 | 1.1 | 0.941 | 0.98 | 0.922
NCI-H1944 | 0.939 | 0.772 | 0.895 | 0.933 | 0.916 | 0.915 | 0.808 | 0.743 | 0.457 | 0.567 | 0.94 | 1.13 | 0.915 | 0.79 | 0.842 | 0.447
NCI-H650 | 0.882 | 0.965 | 0.413 | 0.628 | 0.862 | 0.999 | 0.732 | 0.701 | 0.532 | 0.403 | 0.877 | 0.825 | 0.96 | 0.752 | 1.14 | 0.738
ChaGo-K-1 | 0.958 | 1.02 | 0.863 | 1.01 | 0.989 | 0.91 | 0.959 | 0.9 | 0.63 | 0.859 | 0.973 | 0.875 | 1.02 | 0.871 | – | 0.75
SK-MES-1 | 0.969 | 0.727 | 0.932 | 0.973 | 1.04 | 0.967 | 0.922 | 0.78 | 0.605 | 0.35 | 0.975 | 0.998 | 1.09 | 0.894 | 0.896 | 0.757
NCI-H2347 | 0.939 | 1.02 | 0.791 | 0.924 | 0.979 | 1.07 | 0.904 | 0.772 | 0.376 | 0.516 | 1.07 | 0.97 | 1.12 | 0.949 | 0.992 | 0.864
PC-14 | 0.94 | – | 0.864 | 1.01 | 1 | 1.04 | 0.965 | 0.979 | 0.815 | 0.765 | 1.01 | 1 | 1.03 | 0.89 | 0.908 | 0.973
NCI-H1648 | 0.819 | 0.717 | 1.4 | 0.833 | 0.868 | 0.602 | 0.683 | 0.724 | 0.266 | 0.532 | 0.712 | 0.986 | 0.778 | 0.576 | – | 0.257
LXF-289 | 0.967 | 0.95 | 1 | 1.06 | 1.02 | 0.971 | 1.04 | 0.981 | 0.817 | 0.881 | 0.988 | 1.11 | 1.05 | 1 | 1.06 | 0.961
NCI-H596 | 0.842 | 0.914 | 0.83 | 0.828 | 0.971 | 0.927 | 0.889 | 0.959 | 0.704 | 0.723 | 0.94 | 1.01 | 0.968 | 0.52 | 0.478 | 0.567
NCI-H358 | 0.865 | – | 1.12 | 1.11 | 1 | 0.842 | 1.03 | 1.01 | 0.79 | 0.538 | 0.873 | 0.889 | 0.95 | 0.586 | 0.88 | 0.493
NCI-H1355 | 0.933 | 0.908 | 0.925 | 0.96 | 0.985 | 0.985 | 0.898 | 0.823 | 0.451 | 0.444 | 0.944 | 0.96 | 1 | 0.876 | 0.855 | 0.867
NCI-H727 | 1 | 0.802 | 1.2 | 0.908 | 0.849 | 0.884 | 0.893 | 0.769 | 0.624 | 0.712 | 0.904 | 0.894 | 0.893 | 0.789 | 0.586 | 0.565
NCI-H2023 | 0.915 | 0.863 | 0.908 | 0.957 | 0.952 | 0.855 | 0.819 | 0.566 | 0.429 | 0.377 | 0.876 | 0.928 | 0.93 | 0.649 | 0.6 | 0.5
SW 900 | 0.69 | 0.843 | 0.808 | 0.756 | 0.618 | 0.925 | 0.744 | 0.812 | 0.627 | 0.47 | 0.944 | 0.7 | 1 | 0.789 | – | 0.651
NCI-H2009 | 0.95 | 0.938 | 0.716 | 0.866 | 1.01 | 0.992 | 0.965 | 0.948 | 0.629 | 0.617 | 0.974 | 1.05 | 1.19 | 1.01 | 1.13 | 0.903
HCC-78 | 0.93 | 0.838 | 1.05 | 0.964 | 0.938 | 0.866 | 0.832 | 0.727 | 0.385 | 0.501 | 0.93 | 0.798 | 0.897 | 0.664 | 0.378 | 0.655
NCI-H322M | 0.883 | – | 1.11 | 0.906 | 0.922 | 0.887 | 0.843 | 0.72 | 0.578 | 0.527 | 0.879 | 0.961 | 0.918 | 0.698 | 0.786 | 0.682
